Measured values: PubChem BioAssay AID248 (DTP/NCI, 2004)
Where “and” joins values, the source holds several entries; their conditions need not be identical. Equal values may be shown once. Toxic doses and inconclusive results are not listed. Cut-off read from the data, not from the text of the source: active = T/C of 150% or more; inactive = T/C below 125%.

System: L1210 leukemia ip in BDF1 mice, survival T/C
Assay: NCI In Vivo Anticancer Drug Screen. Data for tumor model L1210 Leukemia (intraperitoneal) in B6D2F1 (BDF1) mice
Details: endpoint: mean survival time, higher = longer survival
Procedure, shortened: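 Each compound was tested against a transplantable tumor grown in mice. The endpoint was survival, with treated animals benchmarked against vehicle controls as a simple ratio.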

[1] = dose: 50.0 mg/kg/injection, schedule: Q01DX009 (ip), vehicle: saline
[2] = dose: 100.0 mg/kg/injection, schedule: Q01DX009 (ip), vehicle: saline
[3] = dose: 100.0 mg/kg/injection, schedule: Q04DX003 (ip), vehicle: saline
[4] = dose: 100.0 mg/kg/injection, schedule: Q01DX001 (ip), vehicle: saline
[5] = dose: 200.0 mg/kg/injection, schedule: Q01DX001 (ip), vehicle: saline
[6] = dose: 400.0 mg/kg/injection, schedule: Q01DX001 (ip), vehicle: saline
[7] = dose: 100.0 mg/kg/injection, schedule: Q04DX003 (ip), vehicle: Klucel (hydroxypropylcellulose) (HPC)
[8] = dose: 200.0 mg/kg/injection, schedule: Q04DX003 (ip), vehicle: Klucel (hydroxypropylcellulose) (HPC)
[9] = dose: 400.0 mg/kg/injection, schedule: Q04DX003 (ip), vehicle: Klucel (hydroxypropylcellulose) (HPC)
[10] = dose: 100.0 mg/kg/injection, schedule: Q01DX009 (ip), vehicle: Klucel (hydroxypropylcellulose) (HPC)
[11] = dose: 200.0 mg/kg/injection, schedule: Q01DX009 (ip), vehicle: Klucel (hydroxypropylcellulose) (HPC)
[12] = dose: 400.0 mg/kg/injection, schedule: Q01DX009 (ip), vehicle: Klucel (hydroxypropylcellulose) (HPC)
[13] = dose: 200.0 mg/kg/injection, schedule: Q04DX003 (ip), vehicle: saline
[14] = dose: 100.0 mg/kg/injection, schedule: Q04DX002 (ip), vehicle: saline
[15] = dose: 100.0 mg/kg/injection, schedule: Q04DX002 (ip), vehicle: saline with Tween-80
[16] = dose: 200.0 mg/kg/injection, schedule: Q04DX002 (ip), vehicle: saline with Tween-80
[17] = dose: 400.0 mg/kg/injection, schedule: Q04DX002 (ip), vehicle: saline with Tween-80
[18] = dose: 100.0 mg/kg/injection, schedule: Q04DX002 (ip), vehicle: Klucel (hydroxypropylcellulose) (HPC)
[19] = dose: 200.0 mg/kg/injection, schedule: Q04DX002 (ip), vehicle: Klucel (hydroxypropylcellulose) (HPC)
[20] = dose: 400.0 mg/kg/injection, schedule: Q04DX002 (ip), vehicle: Klucel (hydroxypropylcellulose) (HPC)
[21] = dose: 200.0 mg/kg/injection, schedule: Q04DX002 (ip), vehicle: saline
[22] = dose: 400.0 mg/kg/injection, schedule: Q04DX002 (ip), vehicle: saline

Measured: T/C

c1ccc2c(c1)C[N+](=C1CCCCC1)Cc1ccccc1-2
inactive: dose: 25.0 mg/kg/injection, schedule: Q01DX009 (ip), vehicle: saline 103 % of control | [1] 106 % of control | [2] 101 % of control | [3] 99 % of control

Oc1ccc(Br)cc1/C=N/N1CCN(/N=C/c2cc(Br)ccc2O)CC1
inactive: [4] 96 % of control | [5] 92 % of control | [6] 90 % of control

Cn1cncc1CC1COC(=O)C1C(O)c1ccccc1 (stereo not given)
inactive: [4] 108 % of control | [5] 107 % of control

CC(C)(C)NC(=O)CCl
inactive: dose: 100.0 mg/kg/injection, schedule: Q01DX001 (ip), vehicle: Klucel (hydroxypropylcellulose) (HPC) 93 % of control | dose: 200.0 mg/kg/injection, schedule: Q01DX001 (ip), vehicle: Klucel (hydroxypropylcellulose) (HPC) 106 % of control

c1ccc(C2C(c3ccccc3)N2c2ccccc2)cc1 (stereo not given)
inactive: dose: 50.0 mg/kg/injection, schedule: Q01DX001 (ip), vehicle: carboxymethylcellulose (CMC) 105 % of control | dose: 100.0 mg/kg/injection, schedule: Q01DX001 (ip), vehicle: carboxymethylcellulose (CMC) 113 % of control | [7] 92 % of control | dose: 100.0 mg/kg/injection, schedule: Q04DX003 (ip), vehicle: saline with Tween-80 97 % of control | dose: 200.0 mg/kg/injection, schedule: Q01DX001 (ip), vehicle: carboxymethylcellulose (CMC) 113 % of control | [8] 94 % of control | dose: 200.0 mg/kg/injection, schedule: Q04DX003 (ip), vehicle: saline with Tween-80 90 % of control | dose: 400.0 mg/kg/injection, schedule: Q01DX001 (ip), vehicle: carboxymethylcellulose (CMC) 103 % of control | [9] 92 % of control | dose: 400.0 mg/kg/injection, schedule: Q04DX003 (ip), vehicle: saline with Tween-80 87 % of control

O=c1[nH]c2cnn(-c3ccccc3)c2c(=O)n1O
inactive: dose: 50.0 mg/kg/injection, schedule: Q01DX001 (ip), vehicle: saline 97 % of control | [4] 97 % of control | [5] 97 % of control | [6] 105 % of control

O=C1OC(c2ccc([N+](=O)[O-])cc2)=N/C1=C\C=C\c1ccccc1
inactive: [10] 98 % of control | [11] 96 % of control | [12] 103 % of control

COc1ccc(/C=C2\CN(CCCC(=O)O)C(=O)C2=O)cc1
inactive: [4] 103 % of control | [3] 100 % of control | [5] 98 % of control | [13] 100 % of control | [6] 100 % of control | dose: 400.0 mg/kg/injection, schedule: Q04DX003 (ip), vehicle: saline 100 % of control

CCCC1([N+]2(C)CCCC2)CS(=O)C1CC (stereo not given)
inactive: [3] 98 % of control | [13] 93 % of control

CC(C)N(CCC#N)C(=S)Nc1cccc2ccccc12
inactive: [10] 93 % of control | [11] 87 % of control | [12] 102 % of control

Nc1nc(N)c(-c2ccc(Cl)cc2)c(C(F)(F)F)n1
inactive: dose: 75.0 mg/kg/injection, schedule: Q01DX001 (ip), vehicle: saline with Tween-80 95 % of control | dose: 150.0 mg/kg/injection, schedule: Q01DX001 (ip), vehicle: saline with Tween-80 100 % of control | dose: 300.0 mg/kg/injection, schedule: Q01DX001 (ip), vehicle: saline with Tween-80 92 % of control

COc1cc(OC)c(OC)cc1CNC1CCCCCCC1
inactive: dose: 25.0 mg/kg/injection, schedule: Q04DX002 (ip), vehicle: saline 102 % of control | dose: 50.0 mg/kg/injection, schedule: Q04DX002 (ip), vehicle: saline 91 % of control | [14] 105 % of control and 115 % of control

CCC(C)(C(=O)OCCOCCCl)c1cccc2ccccc12 (stereo not given)
inactive: [15] 95 % of control | [16] 104 % of control | [17] 101 % of control

[O-][n+]1ccc(CC(O)(C(F)(F)F)C(F)(F)F)cc1
inactive: dose: 25.0 mg/kg/injection, schedule: Q01DX009 (ip), vehicle: Klucel (hydroxypropylcellulose) (HPC) 93 % of control | dose: 50.0 mg/kg/injection, schedule: Q01DX009 (ip), vehicle: Klucel (hydroxypropylcellulose) (HPC) 92 % of control | [10] 97 % of control and 104 % of control | [7] 103 % of control | [8] 102 % of control | [9] 96 % of control

C1=CC2CCC1CC2c1ccccc1 (stereo not given)
inactive: [4] 104 % of control | [5] 105 % of control | [6] 114 % of control

Cc1ccc(NC(=O)c2c(Br)c(Br)c(Br)c(Br)c2C(=O)O)cc1Cl
inactive: [10] 100 % of control | [18] 96 % of control | [11] 96 % of control | [19] 110 % of control | [20] 102 % of control

CCCCCCC#CC(=O)OCCCC
inactive: [15] 93 % of control | [16] 93 % of control | [17] 90 % of control

CC(C)(N)CNCC(C)(C)N
inactive: [4] 97 % of control | [5] 111 % of control

O=C(/C=C/c1ccc([N+](=O)[O-])cc1)Nc1ccc(S(=O)(=O)F)cc1
inactive: [4] 96 % of control | [10] 94 % of control | [5] 101 % of control | [11] 89 % of control | [6] 100 % of control | [12] 88 % of control

COC(=O)C1ON(C(=O)c2ccccc2)C(C)C(O)C1OC=O (stereo not given)
inactive: [18] 95 % of control | [19] 95 % of control | [20] 103 % of control

Cc1ccc(C)c(NC(=O)NC2CCCCC2)c1
inactive: [14] 101 % of control | [21] 97 % of control | [22] 103 % of control

O=C(NC/C(Br)=C/Br)c1ccccc1
inactive: [7] 96 % of control | [8] 100 % of control | [9] 96 % of control

c1ccc(OP2OCCO2)cc1
inactive: [1] 92 % of control | dose: 50.0 mg/kg/injection, schedule: Q04DX003 (ip), vehicle: saline 105 % of control | [2] 102 % of control | [3] 102 % of control | dose: 200.0 mg/kg/injection, schedule: Q01DX009 (ip), vehicle: saline 92 % of control | [13] 103 % of control

O=C(O)CC(NCc1ccccc1)C(=O)O (stereo not given)
inactive: dose: 100.0 mg/kg/injection, schedule: Q01DX009 (ip), vehicle: saline with Tween-80 93 % of control | dose: 200.0 mg/kg/injection, schedule: Q01DX009 (ip), vehicle: saline with Tween-80 91 % of control | dose: 400.0 mg/kg/injection, schedule: Q01DX009 (ip), vehicle: saline with Tween-80 93 % of control

O=C(COc1ccc(Cl)cc1C(=O)O)Nc1ccccc1
inactive: [7] 93 % of control | [8] 102 % of control | [9] 98 % of control

COC(=O)C1C2CCc3cc(OC)ccc3C2=CCC1C(OC)OC (stereo not given)
inactive: [7] 89 % of control | [8] 89 % of control | [9] 89 % of control

CC/C=C1\CCOC1=O
inactive: [14] 102 % of control | [21] 102 % of control | [22] 115 % of control

NC(=O)NC(=O)COc1ccc(Cl)cc1Cl
inactive: dose: 100.0 mg/kg/injection, schedule: Q04DX002 (ip), vehicle: saline + alcohol 96 % of control | dose: 200.0 mg/kg/injection, schedule: Q04DX002 (ip), vehicle: saline + alcohol 103 % of control

Nc1c(F)c(F)c(C(=O)O)c(F)c1F
inactive: [14] 94 % of control and 101 % of control | [21] 97 % of control and 107 % of control | dose: 800.0 mg/kg/injection, schedule: Q04DX002 (ip), vehicle: saline 100 % of control
